Data taken from patent US12486489B2, “Culture medium for testing drug resistance of H.pylori as well as preparation method and use thereof” (priority 2022, dated 2025).
Where two headings read alike, the source gives them in different places.

How the values were obtained:
H. pylori [1] = experiment: Verification of resistance breakpoint: growth of laboratory strains on Columbia solid culture medium with added antibiotics, 72 hours; format: cell-based, Helicobacter pylori
Experimental: The plates are cooled and inverted for approximately 10 mL/piece, marked properly for the subsequent use.
(2) Preparation of bacterial solution: H. pylori grown in logarithmic phase on a solid plate is taken to prepare a bacterial suspension by using BHI. The concentration OD600 is adjusted to 0.3 (1×10^8 CFU/mL), diluted 10 times for the subsequent use.
(3) Inoculation of bacterial solution: 10 μL of bacterial solution is taken and added to Columbia culture medium and the results are determined after cultivating for 72 hours.
(4) Result determination: the minimum drug concentration for no growth of bacteria on the plate is the minimum inhibitory concentration of the bacteria against the drug.

H. pylori [2] = experiment: MIC of laboratory H. pylori strains by micro dilution method; format: cell-based; details: Helicobacter pylori
Experimental: (3) Preparation of bacterial solution: H. pylori grown in logarithmic phase on a solid plate is taken, BHI culture medium is used to prepare a bacterial suspension. The concentration of the bacterial solution is adjusted to 1×10^8 CFU/mL (OD600 is 0.3), diluted 10 times, 100 times, and 1000 times to implement a final concentration of […], for the subsequent use.
(4) Inoculation of bacterial solution: 10 μL of the above bacterial solution for the subsequent use is taken and added to wells the 1-10-th and the 12-th well (bacterial working concentration is 1×10^6 CFU/mL), the 11-th well serves as a non-bacterial control and only sterile water is added. The wells are cultivated for 72 hours to determine the results.

[3] = system: clinical H. pylori strain; experiment: MIC of clinical H. pylori strains by micro dilution method; format: cell-based; details: Helicobacter pylori, 72 h, approximately 1.0×10^6 CFU/mL per well, 72 hours, read-out: MIC
Experimental: The characteristic culture media (A, B, C, D, E) are cultivated at a constant temperature of 37° C. for 36 hours in a three gas incubator. The characteristic culture media are removed and placed in a natural environment for 30 minutes to observe whether there are discolorations at the point of the culture medium where the specimen is dropped in. […] Another 100 μL of the specimen is taken and coated on Columbia solid culture medium and cultivated in a three gas incubator at a constant temperature of 37° C. for 3 days to 5 days. The number of colonies on the plate is counted to determine the initial inoculation amount. The micro dilution method is adopted to test the MIC of clinical specimen H. pylori, the test is meaningful only when there is no bacterial growth in the negative control well without bacteria and there is bacterial growth in the positive well with bacteria but without antibiotics.
H. pylori single colony grown on Colombian culture medium is taken (which is confirmed as H. pylori by urease, oxidase, catalase, and PCR testing of CagA gene, as illustrated in FIG. 13) and the bacteria are increased. During the preparation of MIC plates and bacterial solution, H. pylori with logarithmic growth phase is taken to prepare a bacterial suspension by using BHI. The concentration OD600 is adjusted to 0.3 (1×10^8 CFU/mL, diluted 10 times, 10 μL is taken and added to wells 1-8 (with a bacterial solution concentration of approximately 1.0×10^6 CFU/mL per well, cultivated for 72 hours to determine the results.

For `C[C@H]1COc2c(N3CCN(C)CC3)c(F)cc3c(=O)c(C(=O)O)cn1c23` [Levofloxacin, levofloxacin], the “optimal concentration for adding antibiotics” value (H. pylori [1]; conclusion of breakpoint verification) was 0.5 µg/mL, the growth of bacterial (H. pylori [1]; strain 159, antibiotic 0.25 μg/mL) was “+” and the growth of bacterial (H. pylori [1]; strain 159, antibiotic 0.5 μg/mL) was “+”. The growth of bacterial (H. pylori [1]; strain 159, antibiotic 1 μg/mL) was “−”, the growth of bacterial (H. pylori [1]; strain 161, antibiotic 0.25 μg/mL) was “+” and the growth of bacterial (H. pylori [1]; strain 161, antibiotic 0.5 μg/mL) was “+”. The growth of bacterial (H. pylori [1]; strain 161, antibiotic 1 μg/mL) was “−”, the growth of bacterial (H. pylori [1]; strain 162, antibiotic 0.25 μg/mL) was “+” and the growth of bacterial (H. pylori [1]; strain 162, antibiotic 0.5 μg/mL) was “+”. The growth of bacterial (H. pylori [1]; strain 162, antibiotic 1 μg/mL) was “−”, the growth of bacterial (H. pylori [1]; strain 163, antibiotic 0.25 μg/mL) was “+” and the growth of bacterial (H. pylori [1]; strain 163, antibiotic 0.5 μg/mL) was “+”. The growth of bacterial (H. pylori [1]; strain 163, antibiotic 1 μg/mL) was “−”, the growth of bacterial (H. pylori [1]; strain 286, antibiotic 0.25 μg/mL) was “+” and the growth of bacterial (H. pylori [1]; strain 286, antibiotic 0.5 μg/mL) was “+”. The growth of bacterial (H. pylori [1]; strain 286, antibiotic 1 μg/mL) was “−”, the growth of bacterial (H. pylori [1]; strain 287, antibiotic 0.25 μg/mL) was “+” and the growth of bacterial (H. pylori [1]; strain 287, antibiotic 0.5 μg/mL) was “+”. For the same compound, the growth of bacterial (H. pylori [1]; strain 287, antibiotic 1 μg/mL) was “−”, the growth of bacterial (H. pylori [1]; strain 289, antibiotic 0.25 μg/mL) was “+” and the growth of bacterial (H. pylori [1]; strain 289, antibiotic 0.5 μg/mL) was “+”. The growth of bacterial (H. pylori [1]; strain 289, antibiotic 1 μg/mL) was “+”, the growth of bacterial (H. pylori [1]; strain 290, antibiotic 0.25 μg/mL) was “+” and the growth of bacterial (H. pylori [1]; strain 290, antibiotic 0.5 μg/mL) was “+”. For the same compound, the growth of bacterial (H. pylori [1]; strain 290, antibiotic 1 μg/mL) was “+”, the growth of bacterial (H. pylori [1]; strain 26695, antibiotic 0.25 μg/mL) was “−” and the growth of bacterial (H. pylori [1]; strain 26695, antibiotic 0.5 μg/mL) was “−”. The growth of bacterial (H. pylori [1]; strain 26695, antibiotic 1 μg/mL) was “−”, the growth of bacterial (H. pylori [1]; strain G27, antibiotic 0.25 μg/mL) was “+” and the growth of bacterial (H. pylori [1]; strain G27, antibiotic 0.5 μg/mL) was “−”. The growth of bacterial (H. pylori [1]; strain G27, antibiotic 1 μg/mL) was “−”, the MIC (H. pylori [2]; read-out: minimum inhibitory concentration (MIC), strain 159, bacterial count 10^4 CFU/mL) was 0.5 µg/mL and the MIC (H. pylori [2]; read-out: minimum inhibitory concentration (MIC), strain 159, bacterial count 10^6 CFU/mL (first line of the strain)) was 2 µg/mL. The MIC (H. pylori [2]; read-out: minimum inhibitory concentration (MIC), strain 159, bacterial count 10^6 CFU/mL (second line of the strain)) was 1 µg/mL, the MIC (H. pylori [2]; read-out: minimum inhibitory concentration (MIC), strain 161, bacterial count 10^4 CFU/mL) was 1 µg/mL and the MIC (H. pylori [2]; read-out: minimum inhibitory concentration (MIC), strain 161, bacterial count 10^6 CFU/mL (first line of the strain)) was 2 µg/mL. For the same compound, the MIC (H. pylori [2]; read-out: minimum inhibitory concentration (MIC), strain 161, bacterial count 10^6 CFU/mL (second line of the strain)) was 2 µg/mL, the MIC (H. pylori [2]; read-out: minimum inhibitory concentration (MIC), strain 162, bacterial count 10^4 CFU/mL) was 2 µg/mL and the MIC (H. pylori [2]; read-out: minimum inhibitory concentration (MIC), strain 162, bacterial count 10^6 CFU/mL (first line of the strain)) was 8 µg/mL. The MIC (H. pylori [2]; read-out: minimum inhibitory concentration (MIC), strain 162, bacterial count 10^6 CFU/mL (second line of the strain)) was 4 µg/mL, the MIC (H. pylori [2]; read-out: minimum inhibitory concentration (MIC), strain 163, bacterial count 10^4 CFU/mL) was 2 µg/mL and the MIC (H. pylori [2]; read-out: minimum inhibitory concentration (MIC), strain 163, bacterial count 10^6 CFU/mL (first line of the strain)) was 16 µg/mL. The MIC (H. pylori [2]; read-out: minimum inhibitory concentration (MIC), strain 163, bacterial count 10^6 CFU/mL (second line of the strain)) was 4 µg/mL, the MIC (H. pylori [2]; read-out: minimum inhibitory concentration (MIC), strain 286, bacterial count 10^4 CFU/mL) was 0.5 µg/mL and the MIC (H. pylori [2]; read-out: minimum inhibitory concentration (MIC), strain 286, bacterial count 10^6 CFU/mL (first line of the strain)) was 1 µg/mL. It also gave an MIC (H. pylori [2]; read-out: minimum inhibitory concentration (MIC), strain 286, bacterial count 10^6 CFU/mL (second line of the strain)) of 0.5 µg/mL, an MIC (H. pylori [2]; read-out: minimum inhibitory concentration (MIC), strain 287, bacterial count 10^4 CFU/mL) of 1 µg/mL and an MIC (H. pylori [2]; read-out: minimum inhibitory concentration (MIC), strain 287, bacterial count 10^6 CFU/mL (first line of the strain)) of 4 µg/mL. It also gave an MIC (H. pylori [2]; read-out: minimum inhibitory concentration (MIC), strain 287, bacterial count 10^6 CFU/mL (second line of the strain)) of 2 µg/mL, an MIC (H. pylori [2]; read-out: minimum inhibitory concentration (MIC), strain 289, bacterial count 10^4 CFU/mL) of 2 µg/mL and an MIC (H. pylori [2]; read-out: minimum inhibitory concentration (MIC), strain 289, bacterial count 10^6 CFU/mL (first line of the strain)) of 8 µg/mL. It also gave an MIC (H. pylori [2]; read-out: minimum inhibitory concentration (MIC), strain 289, bacterial count 10^6 CFU/mL (second line of the strain)) of 4 µg/mL, an MIC (H. pylori [2]; read-out: minimum inhibitory concentration (MIC), strain 290, bacterial count 10^4 CFU/mL) of 16 µg/mL and an MIC (H. pylori [2]; read-out: minimum inhibitory concentration (MIC), strain 290, bacterial count 10^6 CFU/mL (first line of the strain)) of 32 µg/mL. The MIC (H. pylori [2]; read-out: minimum inhibitory concentration (MIC), strain 290, bacterial count 10^6 CFU/mL (second line of the strain)) was 32 µg/mL, the MIC (H. pylori [2]; resistant strains 159, 161, 162, 163, 286, 287, 289, and 290, bacterial count 1×10^6 CFU/mL, read-out: MICs) was 0.5 to 32 µg/mL and the MIC (H. pylori [2]; strain G27, bacterial count 10^4 CFU/mL, read-out: minimum inhibitory concentration (MIC)) was 0.0312 µg/mL. For the same compound, the MIC (H. pylori [2]; strain G27, bacterial count 10^6 CFU/mL (first line of the strain), read-out: minimum inhibitory concentration (MIC)) was 0.125 µg/mL, the MIC (H. pylori [2]; strain G27, bacterial count 10^6 CFU/mL (second line of the strain), read-out: minimum inhibitory concentration (MIC)) was 0.0625 µg/mL and the MIC ([3]; clinical strain FY-31) was 16 µg/mL. It also gave an MIC ([3]; clinical strain FY-43) of 1 µg/mL, an MIC ([3]; clinical strain FY-47) of 0.5 µg/mL and an MIC ([3]; clinical strain FY-52) of 0.25 µg/mL.
